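Results reflect a 48-hour exposure of cells in 96-well plates to compound at five concentrations. At the GI50, growth is halved.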 The source made the active and inactive calls. Rule as the data show it: active = GI50 up to about 1.1 µM and inactive = higher. Starred links: 1 amine or outer side, 2 acyl side, 3 side chain; linkers in the order of their positions; H or OH if unused. Positions of bridges follow the written chain, without caps; N, C: chain ends. Non-standard residues stand in square brackets, D forms with d. Residues, ends and D or L forms follow the SMILES beside them. Chains are numbered I, II in the order given. Actinocin(1to9) = Cc1c2oc3c(C)ccc(C(=O)[*:2])c3nc-2c(C(=O)[*:1])c(N)c1=O; aThr = C[C@H](O)[C@H](N)C(=O)O; NMeV = CN[C@H](C(=O)O)C(C)C; Sar = CNCC(=O)O
Assays:
Assay in all cases: NCI-60 cell line screen, 48 h
OVCAR-8 = system: OVCAR-8
M19-MEL = system: M19-MEL
SK-MEL-2 = system: SK-MEL-2
UO-31 = system: UO-31
NCI-H460 = system: NCI-H460
SNB-78 = system: SNB-78
ACHN = system: ACHN
TK-10 = system: TK-10
MCF7 = system: MCF7
MDA-MB-231 = system: MDA-MB-231
OVCAR-3 = system: OVCAR-3
DLD-1 = system: DLD-1
SNB-75 = system: SNB-75
BT-549 = system: BT-549
NCI-H23 = system: NCI-H23
SR = system: SR
HT-29 = system: HT-29
NCI-H226 = system: NCI-H226
CAKI-1 = system: CAKI-1
M14 = system: M14
RXF 393 = system: RXF 393
UACC-62 = system: UACC-62
HOP-18 = system: HOP-18
U-251 = system: U-251
NCI/ADR-RES = system: NCI/ADR-RES
OVCAR-4 = system: OVCAR-4
UACC-257 = system: UACC-257
MDA-N = system: MDA-N
HCT-15 = system: HCT-15
SK-OV-3 = system: SK-OV-3
SF-539 = system: SF-539
DMS-114 = system: DMS-114
NCI-H522 = system: NCI-H522
DMS-273 = system: DMS-273
SW-620 = system: SW-620
KM12 = system: KM12
SNB-19 = system: SNB-19
SF-268 = system: SF-268
SF-295 = system: SF-295
PC-3 = system: PC-3
DU-145 = system: DU-145
SK-MEL-28 = system: SK-MEL-28
T47D = system: T47D
COLO 205 = system: COLO 205
Hs-578T = system: Hs-578T
HCT-116 = system: HCT-116
KM-20L2 = system: KM-20L2
SK-MEL-5 = system: SK-MEL-5
A549 = system: A549
HOP-62 = system: HOP-62
K562 = system: K562
HL-60 = system: HL-60
Malme-3M = system: Malme-3M
CCRF-CEM = system: CCRF-CEM
HCC 2998 = system: HCC 2998
XF498 = system: XF498
OVCAR-5 = system: OVCAR-5
LOX IMVI = system: LOX IMVI
RPMI-8226 = system: RPMI-8226
MOLT-4 = system: MOLT-4
EKVX = system: EKVX
MDA-MB-435 = system: MDA-MB-435
SN12C = system: SN12C
HOP-92 = system: HOP-92
A498 = system: A498
IGROV-1 = system: IGROV-1
786-0 = system: 786-0

Question: `Cc1c2oc3c(C)ccc(C(=O)N[C@@H]4C(=O)N[C@H](C(C)C)C(=O)N5CCC[C@H]5C(=O)N(C)CC(=O)N(C)[C@@H](C(C)C)C(=O)O[C@H]4C)c3nc-2c(C(=O)N[C@@H]2C(=O)N[C@H](C(C)C)C(=O)N3CCC[C@H]3C(=O)N(C)CC(=O)N(C)[C@@H](C(C)C)C(=O)O[C@H]2C)c(N)c1=O` (I: [aThr][dV]P[Sar][NMeV] / II: [aThr][dV]P[Sar][NMeV]; ester I:1-I:C, II:1-II:C; linker I:N-II:N via Actinocin(1to9)) was tested. Which GI50 (OVCAR-8) did it give?
Answer: 1.65 nM (active)

Question: And the GI50 (M19-MEL)?
Answer: 1.55 nM (active)

Question: And the GI50 (SK-MEL-2)?
Answer: 1.06 nM (active)

Question: What about the GI50 (UO-31) of the same molecule?
Answer: 15 nM (active)

Question: And the GI50 (NCI-H460)?
Answer: 0.424 nM (active)

Question: And the GI50 (SNB-78)?
Answer: 2.7 nM (active)

Question: What about the GI50 (ACHN) of the same molecule?
Answer: 3.71 nM (active)

Question: And the GI50 (TK-10)?
Answer: 14.9 nM (active)

Question: And the GI50 (MCF7)?
Answer: 0.189 nM (active)

Question: What about the GI50 (MDA-MB-231) of the same molecule?
Answer: 4.55 nM (active)

Question: And the GI50 (OVCAR-3)?
Answer: 3.61 nM (active)

Question: What about the GI50 (DLD-1) of the same molecule?
Answer: 3.84 nM (active)

Question: And the GI50 (SNB-75)?
Answer: 2.3 nM (active)

Question: What about the GI50 (BT-549) of the same molecule?
Answer: 1.69 nM (active)

Question: What about the GI50 (NCI-H23) of the same molecule?
Answer: 2.19 nM (active)

Question: And the GI50 (SR)?
Answer: 0.31 nM (active)

Question: And the GI50 (HT-29)?
Answer: 0.759 nM (active)

Question: And the GI50 (NCI-H226)?
Answer: 1.95 nM (active)

Question: And the GI50 (CAKI-1)?
Answer: 4.84 nM (active)

Question: What about the GI50 (M14) of the same molecule?
Answer: 5.28 nM (active)

Question: And the GI50 (RXF 393)?
Answer: 2.58 nM (active)

Question: And the GI50 (UACC-62)?
Answer: 0.935 nM (active)

Question: And the GI50 (HOP-18)?
Answer: 6.11 nM (active)

Question: And the GI50 (U-251)?
Answer: 0.611 nM (active)

Question: And the GI50 (NCI/ADR-RES)?
Answer: 98 nM (active)

Question: What about the GI50 (OVCAR-4) of the same molecule?
Answer: 5.83 nM (active)

Question: And the GI50 (UACC-257)?
Answer: 2.55 nM (active)

Question: What about the GI50 (MDA-N) of the same molecule?
Answer: 0.631 nM (active)

Question: And the GI50 (HCT-15)?
Answer: 20 nM

Question: What about the GI50 (SK-OV-3) of the same molecule?
Answer: 8.69 nM (active)

Question: And the GI50 (SF-539)?
Answer: 0.899 nM (active)

Question: What about the GI50 (DMS-114) of the same molecule?
Answer: 2.95 nM (active)

Question: What about the GI50 (NCI-H522) of the same molecule?
Answer: 0.506 nM (active)

Question: What about the GI50 (DMS-273) of the same molecule?
Answer: 0.31 nM (active)

Question: And the GI50 (SW-620)?
Answer: 0.489 nM (active)

Question: What about the GI50 (KM12) of the same molecule?
Answer: 1.28 nM (active)

Question: What about the GI50 (SNB-19) of the same molecule?
Answer: 1.61 nM (active)

Question: And the GI50 (SF-268)?
Answer: 1.48 nM (active)

Question: What about the GI50 (SF-295) of the same molecule?
Answer: 2.03 nM (active)

Question: What about the GI50 (PC-3) of the same molecule?
Answer: 1.34 nM (active)

Question: What about the GI50 (DU-145) of the same molecule?
Answer: 3.93 nM (active)

Question: And the GI50 (SK-MEL-28)?
Answer: 1.39 nM (active)

Question: What about the GI50 (T47D) of the same molecule?
Answer: 0.628 nM (active)

Question: And the GI50 (COLO 205)?
Answer: 1.06 nM (active)

Question: And the GI50 (Hs-578T)?
Answer: 1.87 nM (active)

Question: What about the GI50 (HCT-116) of the same molecule?
Answer: 0.332 nM (active)

Question: And the GI50 (KM-20L2)?
Answer: 2.92 nM (active)

Question: What about the GI50 (SK-MEL-5) of the same molecule?
Answer: 1.15 nM (active)

Question: What about the GI50 (A549) of the same molecule?
Answer: 2.06 nM (active)

Question: What about the GI50 (HOP-62) of the same molecule?
Answer: 2.17 nM (active)

Question: What about the GI50 (K562) of the same molecule?
Answer: 0.492 nM (active)

Question: And the GI50 (HL-60)?
Answer: 2.31 nM (active)

Question: And the GI50 (Malme-3M)?
Answer: 1.19 nM (active)

Question: And the GI50 (CCRF-CEM)?
Answer: 0.863 nM (active)

Question: And the GI50 (HCC 2998)?
Answer: 2.75 nM (active)

Question: And the GI50 (XF498)?
Answer: 0.897 nM (active)

Question: And the GI50 (OVCAR-5)?
Answer: 6.11 nM (active)

Question: And the GI50 (LOX IMVI)?
Answer: 0.518 nM (active)

Question: What about the GI50 (RPMI-8226) of the same molecule?
Answer: 0.61 nM (active)

Question: And the GI50 (MOLT-4)?
Answer: 0.48 nM (active)

Question: What about the GI50 (EKVX) of the same molecule?
Answer: 12 nM (active)

Question: And the GI50 (MDA-MB-435)?
Answer: 0.871 nM (active)

Question: What about the GI50 (SN12C) of the same molecule?
Answer: 1.85 nM (active)

Question: What about the GI50 (HOP-92) of the same molecule?
Answer: 3.14 nM (active)

Question: What about the GI50 (A498) of the same molecule?
Answer: 2.99 nM (active)

Question: And the GI50 (IGROV-1)?
Answer: 2.17 nM (active)

Question: And the GI50 (786-0)?
Answer: 0.951 nM (active)
